Biological target: GABAA receptor (rat brain cortical membranes, [35S]-TBPS binding)
Details: not given

In the case of `CCOC[C@@]1(O)CC[C@H]2[C@@H](CC[C@@H]3[C@@H]2CC[C@]2(C)[C@@H](C(=O)Nc4ccccc4)CCC[C@@H]32)C1` [I-B11, (1S,4aS,4bR,6aS,8R,10aS,10bR,12aS)-8-(ethoxymethyl)-8-hydroxy-12a-methyl-N-phenyloctadecahydrochrysene-1-carboxamide], the IC50 is reported as 10 to 100 nM.

Same assay, conditions: Table I-4; rat brain cortical membranes, 3 nM [35S]-TBPS, in the presence of 5 mM GABA

First: C[C@@]1(O)CC[C@H]2[C@H](CC[C@@H]3[C@@H]2CC[C@]2(C)[C@@H](CO)CCC[C@@H]32)C1 [I-A3, (2R,4aS,4bR,6aS,7S,10aS,10bR,12aR)-7-(hydroxymethyl)-2,6a-dimethyloctadecahydrochrysen-2-ol]
Second: CN(C[C@H]1CCC[C@H]2[C@@H]3CC[C@@H]4C[C@](C)(O)CC[C@@H]4[C@H]3CC[C@]12C)S(=O)(=O)c1ccccc1 [I-A8, N-(((1S,4aS,4bR,6aR,8R,10aS,10bR,12aS)-8-hydroxy-8,12a-dimethyloctadecahydrochrysen-l-yl)methyl)-N-methylbenzenesulfonamide]
The IC50 of the first is higher: 100 to 1000 nM for the first, 10 to 100 nM for the second. The second is the more potent here.

Same assay, conditions: Table I-5; rat brain cortical membranes, 3 nM [35S]-TBPS, in the presence of 5 mM GABA

Compared with `C[C@@]1(O)CC[C@@]2(C)[C@H](CC[C@@H]3[C@@H]2CC[C@]2(C)[C@@H](C(=O)Cn4cc(C#N)cn4)C[C@@H]32)C1` [Compound I-106, 1-(2-((1S,2aS,2bR,4aR,6R,8aS,8bS,10aS)-6-hydroxy-6,8a,10a-trimethylhexadecahydrocyclobuta[a]phenanthren-1-yl)-2-oxoethyl)-1H-pyrazole-4-carbonitrile], `C[C@@]1(O)CC[C@@]2(C)[C@H](CC[C@@H]3[C@@H]2CC[C@]2(C)[C@@H](C(=O)Cn4ccnn4)C[C@@H]32)C1` [Compound I-107a, 1-((1S,2aS,2bR,4aR,6R,8aS,8bS,10aS)-6-hydroxy-6,8a,10a-trimethylhexadecahydrocyclobuta[a]phenanthren-1-yl)-2-(1H-1,2,3-triazol-1-yl)ethan-1-one] is higher in IC50: 100 to 1000 nM for the first, 1000 to 10000 nM for the second.

`C[C@@]1(O)CC[C@@]2(C)[C@H](CC[C@@H]3[C@@H]2CC[C@]2(C)[C@@H](C(=O)Cn4nccn4)C[C@@H]32)C1` [Compound I-107, 1-((1S,2aS,2bR,4aR,6R,8aS,8bS,10aS)-6-hydroxy-6,8a,10a-trimethylhexadecahydrocyclobuta[a]phenanthren-1-yl)-2-(2H-1,2,3-triazol-2-yl)ethan-1-one] and `C[C@@]1(O)CC[C@H]2[C@H](CC[C@@H]3[C@@H]2CC[C@]2(C)[C@@H](C(=O)Cn4nccn4)C[C@@H]32)C1` [I-AA11, 1-((1S,2aS,2bR,4aR,6R,8aS,8bR,10aS)-6-hydroxy-6,10a-dimethylhexadecahydrocyclobuta[a]phenanthren-1-yl)-2-(2H-1,2,3-triazol-2-yl)ethan-1-one] fall in the same range of IC50: 1000 to 10000 nM for the first, 1000 to 10000 nM for the second.

Compared with `COC[C@H]1C[C@H]2[C@@H]3CC[C@@H]4C[C@](C)(O)CC[C@@H]4[C@H]3CC[C@]12C` [Compound I-117, (1S,2aS,2bR,4aR,6R,8aS,8bR,10aS)-1-(methoxymethyl)-6,10a-dimethylhexadecahydrocyclobuta[a]phenanthren-6-ol], `COC[C@@H]1C[C@H]2[C@@H]3CC[C@@H]4C[C@](C)(O)CC[C@@H]4[C@H]3CC[C@]12C` [Compound I-118, (1R,2aS,2bR,4aR,6R,8aS,8bR,10aS)-1-(methoxymethyl)-6,10a-dimethylhexadecahydrocyclobuta[a]phenanthren-6-ol] is higher in IC50: 100 to 1000 nM for the first, 1000 to 10000 nM for the second. The first is the more potent here.

`C[C@@]1(O)CC[C@H]2[C@H](CC[C@@H]3[C@@H]2CC[C@]2(C)[C@@H](C(=O)Nc4ccccc4)C[C@@H]32)C1` [I-AA6, (1S,2aS,2bR,4aR,6R,8aS,8bR,10aS)-6-hydroxy-6,10a-dimethyl-N-phenylhexadecahydrocyclobuta[a]phenanthrene-1-carboxamide] and `C[C@@]1(O)CC[C@H]2[C@H](CC[C@@H]3[C@@H]2CC[C@]2(C)[C@H](C(=O)Nc4ccccc4)C[C@@H]32)C1` [I-AA6a, (1R,2aS,2bR,4aR,6R,8aS,8bR,10aS)-6-hydroxy-6,10a-dimethyl-N-phenylhexadecahydrocyclobuta[a]phenanthrene-1-carboxamide] fall in the same range of IC50: 1000 to 10000 nM for the first, 1000 to 10000 nM for the second.

Compared with `CC(=O)[C@H]1C[C@H]2[C@@H]3CC[C@@H]4C[C@](C)(O)CC[C@@H]4[C@H]3CC[C@]12C` [I-AA8, 1-((1S,2aS,2bR,4aR,6R,8aS,8bR,10aS)-6-hydroxy-6,10a-dimethylhexadecahydrocyclobuta[a]phenanthren-1-yl)ethan-1-one], `CC(=O)[C@H]1C[C@H]2[C@@H]3CC[C@H]4C[C@](C)(O)CC[C@@H]4[C@H]3CC[C@]12C` [I-AD8, 1-((1S,2aS,2bR,4aS,6R,8aS,8bR,10aS)-6-hydroxy-6,10a-dimethylhexadecahydrocyclobuta[a]phenanthren-1-yl)ethan-1-one] is higher in IC50: 100 to 1000 nM for the first, 1000 to 10000 nM for the second. The first is the more potent here.

`C[C@@]1(O)CC[C@H]2[C@H](CC[C@@H]3[C@@H]2CC[C@]2(C)[C@@H](C(=O)Cn4ccnn4)C[C@@H]32)C1` [I-AA12, 1-((1S,2aS,2bR,4aR,6R,8aS,8bR,10aS)-6-hydroxy-6,10a-dimethylhexadecahydrocyclobuta[a]phenanthren-1-yl)-2-(1H-1,2,3-triazol-1-yl)ethan-1-one] and `C[C@@]1(O)CC[C@H]2[C@@H](CC[C@@H]3[C@@H]2CC[C@]2(C)[C@@H](C(=O)Cn4cc(C#N)cn4)C[C@@H]32)C1` [I-AD10, 1-(2-((1S,2aS,2bR,4aS,6R,8aS,8bR,10aS)-6-hydroxy-6,10a-dimethylhexadecahydrocyclobuta[a]phenanthren-1-yl)-2-oxoethyl)-1H-pyrazole-4-carbonitrile] fall in the same range of IC50: 1000 to 10000 nM for the first, 1000 to 10000 nM for the second.

`C[C@@]1(O)CC[C@H]2[C@H](CC[C@@H]3[C@@H]2CC[C@]2(C)[C@@H](CO)C[C@@H]32)C1` [I-AB1, (1S,2aS,2bR,4aR,6R,8aS,8bR,10aS)-1-(hydroxymethyl)-6,10a-dimethylhexadecahydrocyclobutaialphenanthren-6-ol] and `C[C@@]1(O)CC[C@H]2[C@H](CC[C@@H]3[C@@H]2CC[C@]2(C)[C@H](CO)C[C@@H]32)C1` [I-AB1a, (1R,2aS,2bR,4aR,6R,8aS,8bR,10aS)-1-(hydroxymethyl)-6,10a-dimethylhexadecahydrocyclobuta[a]phenanthren-6-ol] fall in the same range of IC50: 1000 to 10000 nM for the first, 1000 to 10000 nM for the second.

`COC[C@@]1(O)CC[C@H]2[C@H](CC[C@@H]3[C@@H]2CC[C@]2(C)[C@@H](C(=O)Nc4ccccc4)C[C@@H]32)C1` [I-AC8, (1S,2aS,2bR,4aR,6R,8aS,8bR,10aS)-6-hydroxy-6-(methoxymethyl)-10a-methyl-N-phenylhexadecahydrocyclobuta[a]phenanthrene-1-carboxamide] and `COC[C@@]1(O)CC[C@H]2[C@H](CC[C@@H]3[C@@H]2CC[C@]2(C)[C@H](C(=O)Nc4ccccc4)C[C@@H]32)C1` [I-AC8a, (1R,2aS,2bR,4aR,6R,8aS,8bR,10aS)-6-hydroxy-6-(methoxymethyl)-10a-methyl-N-phenylhexadecahydrocyclobuta[a]phenanthrene-1-carboxamide] fall in the same range of IC50: 1000 to 10000 nM for the first, 1000 to 10000 nM for the second.

First: COC[C@@]1(O)CC[C@H]2[C@H](CC[C@@H]3[C@@H]2CC[C@]2(C)[C@@H](C(=O)N4CCCC[C@@H]4C)C[C@@H]32)C1 [I-AC9, ((1S,2aS,2bR,4aR,6R,8aS,8bR,10aS)-6-hydroxy-6-(methoxymethyl)-10a-methylhexadecahydrocyclobutaialphenanthren-1-yl)((S)-2-methylpiperidin-1-yl)methanone]
Second: COC[C@@]1(O)CC[C@H]2[C@H](CC[C@@H]3[C@@H]2CC[C@]2(C)[C@@H](C(C)=O)C[C@@H]32)C1 [I-AC11, 1-((1S,2aS,2bR,4aR,6R,8aS,8bR,10aS)-6-hydroxy-6-(methoxymethyl)-10a-methylhexadecahydrocyclobuta[a]phenanthren-1-yl)ethan-1-one]
The IC50 of the first is higher: 1000 to 10000 nM for the first, 100 to 1000 nM for the second.

Compared with `COC[C@@]1(O)CC[C@H]2[C@H](CC[C@@H]3[C@@H]2CC[C@]2(C)[C@@H](C(=O)Cn4cc(C#N)cn4)C[C@@H]32)C1` [I-AC14, 1-(2-((1S,2aS,2bR,4aR,6R,8aS,8bR,10aS)-6-hydroxy-6-(methoxymethyl)-10a-methylhexadecahydrocyclobuta[a]phenanthren-1-yl)-2-oxoethyl)-1H-pyrazole-4-carbonitrile], `CC(=O)[C@@H]1C[C@H]2[C@@H]3CC[C@H]4C[C@](C)(O)CC[C@@H]4[C@H]3CC[C@]12C` [I-AD8a, 1-((1R,2aS,2bR,4aS,6R,8aS,8bR,10aS)-6-hydroxy-6,10a-dimethylhexadecahydrocyclobuta[a]phenanthren-1-yl)ethan-1-one] is higher in IC50: 100 to 1000 nM for the first, 1000 to 10000 nM for the second. The first is the more potent here.

Same assay, conditions: Table I-6; rat brain cortical membranes, 3 nM [35S]-TBPS, in the presence of 5 mM GABA

First: C[C@@]1(O)CC[C@H]2[C@H](CC[C@@H]3[C@@H]2CC[C@]2(C)[C@H](CO)CCCC[C@@H]32)C1 [I-BA5a, (2R,4aS,4bR,6aS,7R,11aS,11bR,13aR)-7-(hydroxymethyl)-2,6a-dimethyloctadecahydro-1H-cyclohepta[a]phenanthren-2-ol]
Second: C[C@@]1(O)CC[C@H]2[C@H](CC[C@@H]3[C@@H]2CC[C@]2(C)[C@@H](CO)CCCC[C@@H]32)C1 [I-BA5b, (2R,4aS,4bR,6aS,7S,11aS,11bR,13aR)-7-(hydroxymethyl)-2,6a-dimethyloctadecahydro-1H-cyclohepta[a]phenanthren-2-ol]
The IC50 of the first is higher: 1000 to 10000 nM for the first, 100 to 1000 nM for the second. The second is the more potent here.

With `COC[C@H]1CCCC[C@H]2[C@@H]3CC[C@@H]4C[C@](C)(O)CC[C@@H]4[C@H]3CC[C@]12C` [I-BA6, (2R,4aS,4bR,6aS,7S,11aS,11bR,13aR)-7-(methoxymethyl)-2,6a-dimethyloctadecahydro-1H-cyclohepta[a]phenanthren-2-ol] the IC50 was 100 to 1000 nM.

Source: patent US20220315621A1, “COMPOSITIONS AND METHODS FOR TREATING CNS DISORDERS” (priority 2017, published 2022)
